# From BindingDB's records for doi:10.1016/j.ejmech.2018.10.048 (Touro University-California, 2019)
# Assay: Inhibition of HIV1 gp41-induced cell-cell fusion between viral protein expressing human HL2/3 cells and TZM-bl target cells preincubated overnight with TZM-bl cells followed by co-incubation with HL2/3 cells for 6 hrs by luciferase reporter gene assay
row,SMILES,IC50
1,COc1cccc(CN2CCc3ccc(-c4ccc5ccn(Cc6cccc(C(=O)O)c6)c5c4)cc32)c1,1000 nM
2,COC(=O)c1cccc(Cn2ccc3ccc(-c4ccc5cnn(Cc6cccc(C(=O)O)c6)c5c4)cc32)c1,2800 nM
3,COC(=O)c1cc(Cn2ccc3ccc(-c4ccc5ccn(Cc6cccc(C(=O)O)c6)c5c4)cc32)cc(C(=O)OC)c1,200 nM
4,CC(C)(C)OC(=O)Nc1cccc(Cn2ccc3ccc(-c4ccc5ccn(Cc6cccc(C(=O)O)c6)c5c4)cc32)c1,2000 nM
5,Cn1ncc2ccc(-c3ccc4ccn(Cc5cc(F)cc(C(=O)O)c5)c4c3)cc21,7000 nM
6,Cn1ccc2cc(F)c(-c3ccc4ccn(Cc5cc(F)cc(C(=O)O)c5)c4c3)cc21,2000 nM
7,COC(=O)c1cc(F)cc(Cn2ccc3ccc(-c4ccc5ccn(Cc6cccc(C(=O)O)c6)c5c4)cc32)c1,800 nM
8,COc1cccc(Cn2ccc3cc(F)c(-c4ccc5ccn(Cc6cccc(C(=O)O)c6)c5c4)cc32)c1,3500 nM
9,COc1cc(Cn2ccc3ccc(-c4ccc5ccn(Cc6cccc(C(=O)O)c6)c5c4)cc32)cc(C(=O)O)c1,8000 nM
10,CC(=O)Nc1cccc(Cn2ccc3ccc(-c4ccc5ccn(Cc6cccc(C(=O)O)c6)c5c4)cc32)c1,1000 nM
11,CC(C)(C)OC(=O)N1CCC(Cn2ccc3ccc(-c4ccc5ccn(Cc6cccc(C(=O)O)c6)c5c4)cc32)CC1,1200 nM
12,Cc1ccc(S(=O)(=O)n2ccc3ccc(-c4ccc5ccn(Cc6cccc(C(=O)O)c6)c5c4)cc32)cc1,1300 nM
13,Cn1cc2ccc(-c3ccc4ccn(Cc5cc(F)cc(C(=O)O)c5)c4c3)cc2n1,28000 nM
14,Cn1ccc2ccc(-c3ccc4c(c3)N(Cc3cccc(C(=O)O)c3)CC4)cc21,> 10000 nM
15,COc1cccc(CNc2cccc(-c3ccc4ccn(Cc5cccc(C(=O)O)c5)c4c3)c2)c1,> 10000 nM
16,COC(=O)c1cccc(Cn2ncc3ccc(-c4ccc5ccn(Cc6cccc(C(=O)O)c6)c5c4)cc32)c1,300 nM
17,Cn1ccc2ccc(-c3ccc4ccn(Cc5cc(F)cc(C(=O)O)c5)c4c3)cc21,3600 nM
18,O=C(O)c1cccc(Cn2ccc3ccc(-c4ccc5ccn(Cc6cccc([N+](=O)[O-])c6)c5c4)cc32)c1,2000 nM
19,Nc1ccc(Cn2ccc3ccc(-c4ccc5ccn(Cc6cccc(C(=O)O)c6)c5c4)cc32)cc1,3000 nM
20,Cn1ncc2ccc(-c3ccc4cnn(Cc5ccc(F)c(C(=O)O)c5)c4c3)cc21,> 25000 nM
21,CC(C)(C)OC(=O)n1ccc2ccc(-c3ccc4ccn(Cc5cccc(C(=O)O)c5)c4c3)cc21,800 nM
22,CN(C(=O)OC(C)(C)C)c1cccc(-c2ccc3ccn(Cc4cccc(C(=O)O)c4)c3c2)c1,5900 nM
23,Cn1ccc2ccc(-c3ccc4cnn(Cc5cc(F)cc(C(=O)O)c5)c4c3)cc21,4600 nM
24,COc1cccc(Cn2ccc3ccc(-c4ccc5c(C)cn(Cc6cccc(C(=O)O)c6)c5c4)cc32)c1,4000 nM
25,Cc1cn(C(=O)OC(C)(C)C)c2cc(-c3ccc4ccn(Cc5cccc(C(=O)O)c5)c4c3)ccc12,2600 nM
26,COC(=O)c1ccc(Cn2ccc3ccc(-c4ccc5ccn(Cc6cccc(C(=O)O)c6)c5c4)cc32)c(OC)c1,2000 nM
